# “Also recorded” adds a separate entry of the source. Like-named read-outs stand apart in the source and are kept apart here.
# Legend:
# jack bean urease = jack bean urease (Canavalia ensiformis, UniProt P07374); assay: biochemical
# Experimental: The inhibitory activity of 1-(3-nitropyridin-2-yl)piperazine derivatives (5a-o; 7a-k) was assessed in vitro against urease with minor modifications using the indophenol method ([Al Azzam et al., 2022]; [Da Costa et al., 2022]). At first, 1 mM solution of a test compound was prepared in 10% DMSO followed by the preparation of the reaction mixture. The reaction mixture was prepared by adding 30 μL of reaction buffer (100 mmol/L of urea, 1 mmol/L of EDTA, 10 mmol/L of LiCl2, 10 mmol/L of KH2PO4; pH: 8.2), 50 μL of R1 (120 mmol/L phosphate buffer, 60 mmol/L sodium salicylate, 5 mmol/L sodium nitroprusside, 1 mmol/L EDTA and 5 KU/L urease), 10 μL of substrate (1 mM urea), and 10 μL of test compound in triplicate in a 96-well plate. After 5 min of incubation at ambient temperature, 70 μL of R2 (120 mmol/L phosphate buffer, 400 mmol/L sodium hydroxide, and 10 mmol/L sodium hypochlorite) was added to the reaction mixture ([Rauf et al., 2013]). After another incubation period of 10 min at room temperature, the absorbance was measured using a microplate reader (Bio-Tek, United States) at a particular wavelength of 630 nm. […] The following equation was used to determine the percentage of inhibition for each test compound. Percentage inhibition=100–Absorbance of test compound/ Absorbance of negative control×100
# The IC50 values of test compounds (5a-o; 7a-k) at various concentrations were determined by analyzing the data, obtained from in vitro urease inhibitory assay, by GraphPad Prism version 8.0.2 (GraphPad, California, United States).
# human blood cells = assay: In vitro hemocompatibility screening (hemolysis); format: cell-based; settings: hemolysis percentage at 0.5 mg/mL and 1 mg/mL nearer to that of PBS
# Experimental: 1-(3-nitropyridin-2-yl)piperazine 3 and its derivatives (5b, 5c, 5i; 7e, 7h) were analyzed for hemolysis activity due to their remarkable urease inhibition potential. […] Experimental data on hemolysis percentage have been depicted in Figure 5.
# Hemolysis is the rupturing of the cell membrane of red blood cells that causes the expulsion of hemoglobin into the blood plasma. To analyze the effects of 1-(3-nitropyridin-2-yl)piperazine 3 and its derivatives (5b, 5c, 5i; 7e, 7h) on human blood, a hemolysis analysis was carried out (Supplementary Figure S69). About 5 mL fresh sample of human blood was collected from a volunteer and transferred to a vacutainer tube containing EDTA to prevent coagulation. The ultracentrifugation of the blood sample was carried out at 3,000 rpm for 20 min and the separated plasma was discarded. The blood cells were washed about three times by using a double volume of phosphate buffer solution (PBS) (pH = 7.4). […] To quantify hemoglobin in test samples, the absorbance of the supernatant was measured at 540 nm ([Munawwar et al., 2023]). From the absorbance value, the hemolysis percentage was determined by the following formula: Hemolysis %=Absorbance of test sample−Absorbance of negative control/[…]
# urease = settings: 2022, cited from earlier work
# Sequence of jack bean urease (P07374 whole entry, looked up): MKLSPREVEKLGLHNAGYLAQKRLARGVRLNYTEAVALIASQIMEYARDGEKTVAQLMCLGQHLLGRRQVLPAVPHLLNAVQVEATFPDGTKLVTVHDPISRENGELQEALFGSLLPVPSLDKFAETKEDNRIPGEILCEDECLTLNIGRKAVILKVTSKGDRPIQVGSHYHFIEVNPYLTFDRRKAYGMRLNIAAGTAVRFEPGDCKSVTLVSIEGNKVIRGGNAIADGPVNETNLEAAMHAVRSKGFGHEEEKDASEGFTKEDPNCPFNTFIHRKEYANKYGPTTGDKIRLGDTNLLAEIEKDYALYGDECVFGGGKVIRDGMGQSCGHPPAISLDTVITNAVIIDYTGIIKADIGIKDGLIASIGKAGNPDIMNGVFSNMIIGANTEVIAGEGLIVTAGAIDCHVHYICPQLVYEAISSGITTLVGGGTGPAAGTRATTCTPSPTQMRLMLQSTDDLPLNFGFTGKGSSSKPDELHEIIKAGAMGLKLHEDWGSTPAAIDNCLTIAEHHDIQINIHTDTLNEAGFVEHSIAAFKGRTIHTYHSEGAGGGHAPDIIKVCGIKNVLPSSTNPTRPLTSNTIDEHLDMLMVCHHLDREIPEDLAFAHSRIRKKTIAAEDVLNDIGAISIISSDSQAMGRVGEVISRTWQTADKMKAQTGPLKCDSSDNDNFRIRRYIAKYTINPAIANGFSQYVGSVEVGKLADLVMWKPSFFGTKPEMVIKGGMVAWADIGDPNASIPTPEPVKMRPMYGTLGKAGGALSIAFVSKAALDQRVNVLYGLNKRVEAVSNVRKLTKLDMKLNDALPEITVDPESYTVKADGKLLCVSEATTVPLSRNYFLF
SMILES,IC50 (jack bean urease) [µM],melting point [°C],biocompatibility in human blood cells (hemolysis percentage) (human blood cells),"IC50 (urease; in Figure 3, ref Moghadam et al.) [µM]","IC50 (urease; in Figure 3, ref Naseer et al.) [µM]"
"CC(C(=O)Nc1cccc(Cl)c1)N1CCN(c2ncccc2[N+](=O)[O-])CC1 (stereo not shown) [7b, N-(3-Chlorophenyl)-2-(4-(3-nitropyridin-2-yl)piperazin-1-yl)propanamide]",6.7 ± 0.37,107 to 109,,,
"Cc1ccccc1NC(=O)C(C)N1CCN(c2ncccc2[N+](=O)[O-])CC1 (stereo not shown) [7h, N-(ortho-Tolyl)-2-(4-(3-nitropyridin-2-yl)piperazin-1-yl)propanamide]",3.01 ± 0.45,90 to 92,more biocompatible; also recorded: good biocompatibility,,
"COc1ccc(NC(=O)CN2CCN(c3ncccc3[N+](=O)[O-])CC2)cc1 [5o, N-(4-Methoxyphenyl)-2-(4-(3-nitropyridin-2-yl)piperazin-1-yl)acetamide]",5.21 ± 0.47,107 to 108,,,
"O=C(CN1CCN(c2ncccc2[N+](=O)[O-])CC1)Nc1cccc(Br)c1 [5f, N-(3-Bromophenyl)-2-(4-(3-nitropyridin-2-yl)piperazin-1-yl)acetamide]",5.24 ± 0.45,101 to 102,,,
"O=C(CN1CCN(c2ncccc2[N+](=O)[O-])CC1)Nc1ccccc1Br [5e, N-(2-Bromophenyl)-2-(4-(3-nitropyridin-2-yl)piperazin-1-yl)acetamide]",4.47 ± 0.44,109 to 110,,,
"CC(C(=O)Nc1ccccc1Br)N1CCN(c2ncccc2[N+](=O)[O-])CC1 (stereo not shown) [7d, N-(2-Bromophenyl)-2-(4-(3-nitropyridin-2-yl)piperazin-1-yl)propanamide]",6.74 ± 0.49,91 to 94,,,
"Cc1ccc(NC(=O)C(C)N2CCN(c3ncccc3[N+](=O)[O-])CC2)cc1 (stereo not shown) [7i, N-(para-Tolyl)-2-(4-(3-nitropyridin-2-yl)piperazin-1-yl)propanamide]",5.65 ± 0.4,88 to 89,,,
"Cc1ccc(NC(=O)CN2CCN(c3ncccc3[N+](=O)[O-])CC2)cc1 [5m, 2-(4-(3-Nitropyridin-2-yl)piperazin-1-yl)-N-(para-tolyl)acetamide]",9.37 ± 0.4,112 to 113,,,
COc1ccccc1N1CCN(c2ccc(/C=N/NC(N)=O)cc2)CC1 [Piperazine based semicarbazone],,,,3.95,
"COc1ccc(NC(=O)C(C)N2CCN(c3ncccc3[N+](=O)[O-])CC2)cc1 (stereo not shown) [7k, N-(4-Methoxyphenyl)-2-(4-(3-nitropyridin-2-yl)piperazin-1-yl)propanamide]",5.95 ± 0.43,62 to 64,,,
"CC(C(=O)Nc1ccc(Cl)cc1)N1CCN(c2ncccc2[N+](=O)[O-])CC1 (stereo not shown) [7c, N-(4-Chlorophenyl)-2-(4-(3-nitropyridin-2-yl)piperazin-1-yl)propanamide]",7.38 ± 0.37,57 to 59,,,
"Cc1ccccc1NC(=O)CN1CCN(c2ncccc2[N+](=O)[O-])CC1 [5k, 2-(4-(3-Nitropyridin-2-yl)piperazin-1-yl)-N-(ortho-tolyl)acetamide]",14.1 ± 0.67,105 to 106,,,
"O=C(CN1CCN(c2ncccc2[N+](=O)[O-])CC1)Nc1ccccc1Cl [5b, N-(2-Chlorophenyl)-2-(4-(3-nitropyridin-2-yl)piperazin-1-yl)acetamide]",2 ± 0.73,,,,
"O=C(CN1CCN(c2ncccc2[N+](=O)[O-])CC1)Nc1cccc(Cl)c1 [5c, N-(3-Chlorophenyl)-2-(4-(3-nitropyridin-2-yl)piperazin-1-yl)acetamide]",2.13 ± 0.82,71 to 73,,,
"CC(C(=O)Nc1ccccc1[N+](=O)[O-])N1CCN(c2ncccc2[N+](=O)[O-])CC1 (stereo not shown) [7e, N-(2-Nitrophenyl)-2-(4-(3-nitropyridin-2-yl)piperazin-1-yl)propanamide]",2.24 ± 1.63,,more biocompatible; also recorded: good biocompatibility,,
"O=[N+]([O-])c1cccnc1N1CCNCC1 [compound 3, 1-(3-Nitropyridin-2-yl)piperazine]",3.9 ± 1.91,,,,
"CC(C(=O)Nc1ccc([N+](=O)[O-])cc1)N1CCN(c2ncccc2[N+](=O)[O-])CC1 (stereo not shown) [7g, N-(4-Nitrophenyl)-2-(4-(3-nitropyridin-2-yl)piperazin-1-yl)propanamide]",6.13 ± 0.4,159 to 161,,,
"O=C(CN1CCN(c2ncccc2[N+](=O)[O-])CC1)Nc1ccc([N+](=O)[O-])cc1 [5j, N-(4-Nitrophenyl)-2-(4-(3-nitropyridin-2-yl)piperazin-1-yl)acetamide]",4.19 ± 0.41,145 to 146,,,
"O=C(CN1CCN(c2ncccc2[N+](=O)[O-])CC1)Nc1ccc(Cl)cc1 [5d, N-(4-Chlorophenyl)-2-(4-(3-nitropyridin-2-yl)piperazin-1-yl)acetamide]",8.25 ± 0.41,99 to 100,,,
"Cc1cccc(NC(=O)CN2CCN(c3ncccc3[N+](=O)[O-])CC2)c1 [5l, 2-(4-(3-Nitropyridin-2-yl)piperazin-1-yl)-N-(meta-tolyl)acetamide]",7.14 ± 0.46,95 to 96,,,
"O=C(CN1CCN(c2ncccc2[N+](=O)[O-])CC1)Nc1ccccc1 [5a, 2-(4-(3-Nitropyridin-2-yl)piperazin-1-yl)-N-phenylacetamide]",3.58 ± 0.84,79 to 80,,,
"COc1ccccc1NC(=O)C(C)N1CCN(c2ncccc2[N+](=O)[O-])CC1 (stereo not shown) [7j, N-(2-Methoxyphenyl)-2-(4-(3-nitropyridin-2-yl)piperazin-1-yl)propanamide]",5.32 ± 0.41,108 to 110,,,
"CC(C(=O)Nc1ccccc1)N1CCN(c2ncccc2[N+](=O)[O-])CC1 (stereo not shown) [7a, 2-(4-(3-Nitropyridin-2-yl)piperazin-1-yl)-N-phenylpropanamide]",7.41 ± 0.44,92 to 94,,,
"O=C(CN1CCN(c2ncccc2[N+](=O)[O-])CC1)Nc1ccccc1[N+](=O)[O-] [5h, N-(2-Nitrophenyl)-2-(4-(3-nitropyridin-2-yl)piperazin-1-yl)acetamide]",7.12 ± 0.39,113 to 115,,,
NC(=S)N/N=C/c1ccc(Cl)cn1 [Pyridine carbothioamide],,,,,1.07
"COc1ccccc1NC(=O)CN1CCN(c2ncccc2[N+](=O)[O-])CC1 [5n, N-(2-Methoxyphenyl)-2-(4-(3-nitropyridin-2-yl)piperazin-1-yl)acetamide]",5.33 ± 0.44,120 to 121,,,
"CC(C(=O)Nc1cccc([N+](=O)[O-])c1)N1CCN(c2ncccc2[N+](=O)[O-])CC1 (stereo not shown) [7f, N-(3-Nitrophenyl)-2-(4-(3-nitropyridin-2-yl)piperazin-1-yl)propanamide]",7.66 ± 0.37,120 to 121,,,
"O=C(CN1CCN(c2ncccc2[N+](=O)[O-])CC1)Nc1ccc(Br)cc1 [5g, N-(4-Bromophenyl)-2-(4-(3-nitropyridin-2-yl)piperazin-1-yl)acetamide]",8.43 ± 0.41,115 to 116,,,
"O=C(CN1CCN(c2ncccc2[N+](=O)[O-])CC1)Nc1cccc([N+](=O)[O-])c1 [5i, N-(3-Nitrophenyl)-2-(4-(3-nitropyridin-2-yl)piperazin-1-yl)acetamide]",2.56 ± 0.55,139 to 141,,,
